Converted amounts (≈) assume the structure as drawn. The source made the active and inactive calls. No cut-off for these calls is given here.
What was measured:
[1] = target: T1, Protein cereblon/Tyrosinase (Homo sapiens) (UniProt P14679+Q96SW2); test: Protac activity at CRBN E3 ubiquitin ligase/tyrosinase in human A-375 cells assessed as induction of tyrosinase degradation at 100 uM measured after 24 hrs by immunoblotting analysis; assay type: cell-based
[2] = target: T1, Protein cereblon/Tyrosinase (Homo sapiens); test: Protac activity at CRBN E3 ubiquitin ligase/tyrosinase in human A-375 cells assessed as induction of tyrosinase degradation at 50 uM measured after 24 hrs by immunoblotting analysis; assay type: cell-based
[3] = target: T1, Protein cereblon/Tyrosinase (Homo sapiens); test: Protac activity at CRBN E3 ubiquitin ligase/tyrosinase in human A375 cells assessed as induction of tyrosinase degradation at 50 uM measured after 24 hrs by immunoblotting analysis relative to control; assay type: cell-based; settings: A-375
Danio rerio [4] = species on record: Danio rerio; test: Inhibition of melanin production in zebra fish assessed reduction in melanin level in abdomen at 25 to 100 uM measured 48 hrs post fertilization; assay type: functional, organism-based; settings: dose 25-100 µM
A-375 [5] = test: Inhibition of melanin production in human A-375 cells assessed reduction in melanin level at 100 uM measured after 24 hrs by UV-visible absorption spectrophotometric method; assay type: functional, cell-based
Danio rerio [6] = species on record: Danio rerio; test: Inhibition of melanin production in zebra fish assessed reduction in melanin level in eyes at 25 to 100 uM measured 48 hrs post fertilization; assay type: functional, organism-based; settings: dose 25-100 µM
Danio rerio [7] = species on record: Danio rerio; test: Inhibition of melanin production in zebra fish assessed reduction in melanin level in tail at 25 to 100 uM measured 48 hrs post fertilization; assay type: functional, organism-based; settings: dose 25-100 µM
[8] = Aqueous solubility of compound; assay type: physicochemical; settings: aqueous (not further specified)
Danio rerio [9] = species on record: Danio rerio; test: Inhibition of melanin production in zebra fish assessed depigmentation effect at 100 uM measured 96 hrs post fertilization; assay type: functional, organism-based
Danio rerio [10] = species on record: Danio rerio; test: Inhibition of melanin production in zebra fish assessed reduction in melanin level in back at 25 to 100 uM measured 48 hrs post fertilization; assay type: functional, organism-based; settings: dose 25-100 µM
Mushroom tyrosinase = Mushroom tyrosinase (Agaricus bisporus, UniProt O42713+Q00024+C7FF04+C7FF05); test: Binding affinity to mushroom tyrosinase assessed as dissociation constant
[11] = target: T2, Tyrosinase (Homo sapiens) (UniProt P14679); test: Induction of human tyrosinase degradation in human A-375 cells assessed as downregulation of tyrosinase at 100 uM pretreated with ubiquitin activating enzyme inhibitor […] for 30 mins followed by compound addition and measured after 24 hrs by immunoblotting analysis; assay type: cell-based
T2 sequence (whole entry): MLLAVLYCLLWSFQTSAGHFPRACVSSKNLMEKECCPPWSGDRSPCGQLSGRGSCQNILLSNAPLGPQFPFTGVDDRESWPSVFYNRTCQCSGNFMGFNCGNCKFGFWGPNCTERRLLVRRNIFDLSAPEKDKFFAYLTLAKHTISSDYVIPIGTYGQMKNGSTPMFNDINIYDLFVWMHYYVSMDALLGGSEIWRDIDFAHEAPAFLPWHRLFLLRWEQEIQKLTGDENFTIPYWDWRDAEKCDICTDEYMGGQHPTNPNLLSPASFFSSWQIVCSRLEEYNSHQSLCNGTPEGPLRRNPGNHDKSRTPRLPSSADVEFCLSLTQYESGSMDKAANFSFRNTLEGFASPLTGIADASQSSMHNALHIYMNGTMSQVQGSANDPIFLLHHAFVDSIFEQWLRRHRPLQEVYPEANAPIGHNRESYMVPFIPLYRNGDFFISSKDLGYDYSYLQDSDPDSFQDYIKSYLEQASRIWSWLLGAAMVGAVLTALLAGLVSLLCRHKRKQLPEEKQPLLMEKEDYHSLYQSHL

[12] = target: Adrenergic receptor alpha-1 (Homo sapiens) (UniProt P35348+P25100+P35368); test: Induction of degradation in adrenergic receptor alpha1 in human A-375 cells at 100 uM measured after 24 hrs by immunoblotting analysis; assay type: cell-based
Tyrosinase = target: T3, Tyrosinase (Homo sapiens, UniProt P14679); test: Inhibition of human tyrosinase
T3 sequence (P14679 whole entry): T2 sequence (whole entry)

[13] = Toxicity in zebrafish embryo assessed as effect on respiration at 25 to 100 uM measured 48 hrs post fertilization; set-up: species or system Danio rerio; settings: in vivo, dose 25-100 µM
[14] = n-Octanol/water partition coefficient, logD of the compound; assay type: physicochemical
Danio rerio [15] = species on record: Danio rerio; test: Inhibition of melanin production in zebra fish assessed reduction in melanin level in eyes at 25 to 100 uM measured 48 hrs post fertilization relative to 100 uM kojic acid; assay type: functional; settings: dose 25-100 µM
A-375 [16] = test: Inhibition of melanin production in human A-375 cells assessed depigmentation ability at 0 to 100 uM measured after 24 hrs by UV-visible absorption spectrophotometric method relative to 100 uM kojic acid; assay type: functional; settings: dose 0-100 µM
HEK293 = test: Cytotoxicity against HEK293 cells assessed as reduction in cell viability at up to 400 uM measured after 72 hrs by CCK8 assay; assay type: cell-based; settings: human, hek293, 72 h
A-375 [17] = test: Inhibition of melanin production in human A-375 cells assessed reduction in melanin level measured after 24 hrs by UV-visible absorption spectrophotometric method; assay type: functional, cell-based
[18] = target: T1, Protein cereblon/Tyrosinase (Homo sapiens); test: Protac activity at CRBN E3 ubiquitin ligase/tyrosinase in human A-375 cells assessed as induction of tyrosinase degradation by measuring maximum degradation at 100 uM measured after 24 hrs by immunoblotting analysis relative to control; assay type: cell-based
[19] = Cytotoxicity against HEK293 cells assessed as reduction in cell viability measured after 72 hrs by CCK8 assay; assay type: cell-based; settings: human
A-375 [20] = test: Cytotoxicity against human A-375 cells assessed as reduction in cell viability at up to 400 uM measured after 72 hrs by CCK8 assay; assay type: cell-based; settings: a-375, 72 h
[21] = Cytotoxicity against human A-375 cells assessed as reduction in cell viability measured after 72 hrs by CCK8 assay; assay type: cell-based
Danio rerio [22] = species on record: Danio rerio; test: Inhibition of melanin production in zebra fish assessed depigmentation effect at 25 to 100 uM measured 96 hrs post fertilization relative to control; assay type: functional; set-up: scale not given: the % may be the effect or the level left; settings: dose 25-100 µM
[23] = target: Beta-1 adrenergic receptor (Homo sapiens) (UniProt P08588); test: Induction of degradation in adrenergic receptor beta1 in human A-375 cells at 100 uM measured after 24 hrs by immunoblotting analysis; assay type: cell-based
Sequence of Beta-1 adrenergic receptor (Homo sapiens) (P08588 whole entry, looked up): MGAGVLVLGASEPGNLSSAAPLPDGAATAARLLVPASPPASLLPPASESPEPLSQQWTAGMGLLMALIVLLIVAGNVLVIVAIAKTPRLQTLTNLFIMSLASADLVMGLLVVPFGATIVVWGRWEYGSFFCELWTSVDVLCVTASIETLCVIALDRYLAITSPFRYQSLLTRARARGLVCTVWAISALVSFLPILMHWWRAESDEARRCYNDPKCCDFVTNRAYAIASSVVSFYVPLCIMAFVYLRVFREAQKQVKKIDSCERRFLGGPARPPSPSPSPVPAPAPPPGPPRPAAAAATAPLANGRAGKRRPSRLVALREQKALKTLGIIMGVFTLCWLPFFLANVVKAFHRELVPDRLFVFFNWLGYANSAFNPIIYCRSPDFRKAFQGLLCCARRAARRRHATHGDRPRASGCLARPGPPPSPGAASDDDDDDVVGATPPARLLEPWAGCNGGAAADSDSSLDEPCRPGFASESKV

[24] = target: D(1A) dopamine receptor (Homo sapiens) (UniProt P21728); test: Induction of degradation in dopamine receptor D1 in human A-375 cells at 100 uM measured after 24 hrs by immunoblotting analysis; assay type: cell-based
Sequence of D(1A) dopamine receptor (Homo sapiens) (P21728 whole entry): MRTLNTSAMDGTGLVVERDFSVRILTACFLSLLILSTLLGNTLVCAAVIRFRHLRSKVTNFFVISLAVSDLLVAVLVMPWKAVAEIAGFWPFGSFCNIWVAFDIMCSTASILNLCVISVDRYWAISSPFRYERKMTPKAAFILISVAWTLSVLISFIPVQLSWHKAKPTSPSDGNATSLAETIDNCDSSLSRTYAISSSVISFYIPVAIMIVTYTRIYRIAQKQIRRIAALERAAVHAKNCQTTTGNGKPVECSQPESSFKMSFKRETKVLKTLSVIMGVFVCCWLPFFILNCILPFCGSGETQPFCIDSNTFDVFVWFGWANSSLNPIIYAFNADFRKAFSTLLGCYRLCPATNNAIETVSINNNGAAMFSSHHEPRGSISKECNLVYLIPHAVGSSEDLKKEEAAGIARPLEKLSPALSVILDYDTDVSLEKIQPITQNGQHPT

Danio rerio [25] = species on record: Danio rerio; test: Inhibition of melanin production in zebra fish assessed reduction in melanin level in eyes at 25 to 100 uM measured 48 hrs post fertilization relative to 100 uM L-Dopa; assay type: functional; settings: dose 25-100 µM
A-375 [26] = test: Inhibition of melanin production in human A-375 cells assessed depigmentation ability at 0 to 100 uM measured after 24 hrs by UV-visible absorption spectrophotometric method relative to 100 uM L-Dopa; assay type: functional; settings: dose 0-100 µM
[27] = target: T1, Protein cereblon/Tyrosinase (Homo sapiens); test: Protac activity at CRBN E3 ubiquitin ligase/tyrosinase in human A-375 cells assessed as induction of tyrosinase degradation at 100 uM measured up to 48 hrs by immunoblotting analysis; assay type: cell-based; settings: time hrs <=48, TDE = time-dependent effect
[28] = target: T2, Tyrosinase (Homo sapiens); test: Induction of human tyrosinase degradation in human A-375 cells assessed as downregulation of tyrosinase at 100 uM pretreated with proteasome inhibitor, MG132 for 30 mins followed by compound addition and measured after 24 hrs by immunoblotting analysis; assay type: cell-based
[29] = target: T1, Protein cereblon/Tyrosinase (Homo sapiens); test: Protac activity at CRBN E3 ubiquitin ligase/tyrosinase in human A-375 cells assessed as induction of tyrosinase degradation measured after 24 hrs by immunoblotting analysis; assay type: cell-based
[30] = Toxicity in zebrafish embryo assessed as effect on morphology at 25 to 100 uM measured 48 hrs post fertilization; assay type: tissue-based, Danio rerio; settings: in vivo, dose 25-100 µM

T1 sequence (Q96SW2 whole entry, looked up, one chain of several): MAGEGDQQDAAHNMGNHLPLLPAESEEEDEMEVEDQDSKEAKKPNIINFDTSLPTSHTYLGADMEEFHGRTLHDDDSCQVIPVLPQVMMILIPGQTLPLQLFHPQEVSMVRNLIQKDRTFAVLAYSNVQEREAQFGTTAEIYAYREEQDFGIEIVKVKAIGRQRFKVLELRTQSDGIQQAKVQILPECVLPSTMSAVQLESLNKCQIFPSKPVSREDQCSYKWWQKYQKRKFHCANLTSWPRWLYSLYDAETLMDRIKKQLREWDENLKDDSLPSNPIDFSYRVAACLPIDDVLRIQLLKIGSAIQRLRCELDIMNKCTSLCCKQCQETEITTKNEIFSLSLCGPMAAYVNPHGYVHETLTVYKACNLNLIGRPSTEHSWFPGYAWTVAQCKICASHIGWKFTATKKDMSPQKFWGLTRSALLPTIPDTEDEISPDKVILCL

In the case of `N[C@@H](Cc1ccccc1)C(=O)NCCCCCNc1cccc2c1C(=O)N(C1CCC(=O)NC1=O)C2=O` (some centres not stated), the Activity [1] is reported as “inactive”.

For `O=C1CCC(N2C(=O)c3ccccc3C2=O)C(=O)N1` (configuration not stated), the Activity [2] was “inactive”.

`N[C@@H](Cc1ccc(O)c(O)c1)C(=O)NCCOCCNc1cccc2c1C(=O)N(C1CCC(=O)NC1=O)C2=O` (some centres not stated) showed an Activity [3] of 7%.

For `CN1C(=O)CCC(N2C(=O)c3cccc(NCCCCCNC(=O)[C@@H](N)Cc4ccc(O)c(O)c4)c3C2=O)C1=O` (some centres not stated), the Activity [1] was “inactive”.

With `O=C1CCC(N2C(=O)c3cccc(NCCCCCCCC(=O)OCc4cc(=O)c(O)co4)c3C2=O)C(=O)N1` (configuration not stated) the Activity [2] was “inactive”.

For `O=C(CCc1ccc(O)c(O)c1)NCCCCCNc1cccc2c1C(=O)N(C1CCC(=O)NC1=O)C2=O` (configuration not stated), the Activity [1] was “inactive”.

For `O=c1cc(CO)occ1O` [KOJIC ACID], the inhibition (Danio rerio [4]) was “inactive”, the inhibition (A-375 [5]) was “Active” and the inhibition (Danio rerio [6]) was “inactive”. The inhibition (Danio rerio [7]) was “inactive”, the solubility [8] was 55 µg/mL (≈ 387 µM) and the Activity (Danio rerio [9]) was “Active”. For the same molecule, the inhibition (Danio rerio [10]) was “inactive”.

Molecule `N[C@@H](Cc1ccc(O)c(O)c1)C(=O)NCCNc1cccc2c1C(=O)N(C1CCC(=O)NC1=O)C2=O` (some centres not stated) has an Activity [3] of 14%.

For `N[C@@H](Cc1ccc(O)cc1)C(=O)NCCCCCNc1cccc2c1C(=O)N(C1CCC(=O)NC1=O)C2=O` (some centres not stated), the Activity [1] was “inactive”.

`N[C@@H](Cc1ccc(O)c(O)c1)C(=O)NCCCNc1cccc2c1C(=O)N(C1CCC(=O)NC1=O)C2=O` (some centres not stated) showed an Activity [3] of 25%.

In the case of `N[C@@H](Cc1ccc(O)c(O)c1)C(=O)O` [LEVODOPA], the Kd (Mushroom tyrosinase) is reported as 19 µM, the inhibition (Danio rerio [4]) is reported as “inactive” and the inhibition (A-375 [5]) is reported as “Active”. For the same molecule, the inhibition (Danio rerio [6]) was “inactive”, the Activity [2] was “inactive” and the inhibition (Danio rerio [7]) was “inactive”. The inhibition (Danio rerio [10]) was “inactive”.

Molecule `O=c1oc2c(O)c(O)cc3c(=O)oc4c(O)c(O)cc1c4c23` [ELLAGIC ACID] has a solubility [8] of 9.7 µg/mL (≈ 32.1 µM).

With `N[C@@H](Cc1ccc(O)c(O)c1)C(=O)NCCCCCNc1cccc2c1C(=O)N(C1CCC(=O)NC1=O)C2=O` (some centres not stated) the Activity [11] was “inactive”, the inhibition (Danio rerio [4]) was “Active” and the Activity [12] was “inactive”. The IC50 (Tyrosinase) was 113 µM, the Activity [13] was “Non-Toxic” and the logP [14] was -0.65. For the same molecule, the “fold change (FC)” value (Danio rerio [15]) was 3.3, the “fold change (FC)” value (A-375 [16]) was 1.4 and the inhibition (Danio rerio [6]) was “Active”. For the same molecule, the Activity (HEK293) was “Non-Toxic”, the Activity [3] was 46% and the inhibition (A-375 [17]) was “Dose-Dependent Effect”. For the same molecule, the Activity [2] was “Active”, the %max [18] was 61% and the inhibition (Danio rerio [7]) was “Active”. The CC50 at 72 h [19] was greater than 700 µM, the Activity (A-375 [20]) was “Non-Toxic” and the CC50 at 72 h [21] was greater than 700 µM. For the same molecule, the Activity (Danio rerio [22]) was 81%, the Activity [23] was “inactive” and the Activity [24] was “inactive”. The “fold change (FC)” value (Danio rerio [25]) was 5.1, the solubility [8] was 11400 µg/mL (≈ 21200 µM) and the “fold change (FC)” value (A-375 [26]) was 1.7. The Activity [27] was “Tde”, the Activity [28] was “inactive” and the Activity [29] was “Dose-Dependent Effect”. For the same molecule, the Activity [30] was “Non-Toxic” and the inhibition (Danio rerio [10]) was “Active”.

With `N[C@@H](Cc1ccc(O)c(O)c1)C(=O)NCCCCCCCCNc1cccc2c1C(=O)N(C1CCC(=O)NC1=O)C2=O` (some centres not stated) the Activity [3] was 38% and the Activity [2] was “Active”.

`N[C@@H](Cc1ccc(O)c(O)c1)C(=O)NCCCCCCCCCCNc1cccc2c1C(=O)N(C1CCC(=O)NC1=O)C2=O` (some centres not stated) gave an Activity [3] of 37%.

With `N[C@@H](Cc1ccc(O)c(O)c1)C(=O)NCCCCCCNc1cccc2c1C(=O)N(C1CCC(=O)NC1=O)C2=O` (some centres not stated) the Activity [12] was “inactive”, the Activity [3] was greater than 25% and the Activity [23] was “inactive”. For the same molecule, the Activity [24] was “inactive”.

For `O=C1CCC(N2C(=O)c3cccc(NCCCCCC(=O)OCc4cc(=O)c(O)co4)c3C2=O)C(=O)N1` (configuration not stated), the Activity [2] was “inactive”.

With `O=C1CCC(N2C(=O)c3cccc(NCCCCCCCCCCC(=O)OCc4cc(=O)c(O)co4)c3C2=O)C(=O)N1` (configuration not stated) the Activity [2] was “inactive”.

In the case of `N[C@@H](Cc1cccc(O)c1)C(=O)NCCCCCNc1cccc2c1C(=O)N(C1CCC(=O)NC1=O)C2=O` (some centres not stated), the Activity [1] is reported as “inactive”.

`N[C@@H](Cc1ccc(O)c(O)c1)C(=O)NCCOCCOCCNc1cccc2c1C(=O)N(C1CCC(=O)NC1=O)C2=O` (some centres not stated) showed an Activity [3] of 7%.

In the case of `N[C@@H](Cc1ccc(O)c(O)c1)C(=O)NCCCCCCCNc1cccc2c1C(=O)N(C1CCC(=O)NC1=O)C2=O` (some centres not stated), the Activity [3] is reported as 37%.

`N[C@@H](Cc1ccc(O)c(O)c1)C(=O)NCCCCNc1cccc2c1C(=O)N(C1CCC(=O)NC1=O)C2=O` (some centres not stated) gave an Activity [3] of 19%.

In the case of `O=C1CCC(N2C(=O)c3cccc(NCCCCCCCCC(=O)OCc4cc(=O)c(O)co4)c3C2=O)C(=O)N1` (configuration not stated), the Activity [2] is reported as “inactive”.
